Data published in patent US20040185460A1, “Novel mixed lineage kinase (7) (mlk7) polypeptide polynucleotides encoding the same and methods of use thereof” (priority 2001, published 2004).

Tested on: baculoviral human GST-MLK7KD and GST-MLK7KD/LZ
Conditions: data not shown; shows requirement for metal ions (Mg+2)

In the case of `O=C(O)CN(CCN(CC(=O)O)CC(=O)O)CC(=O)O` [EDTA], the “activities of GST-MLK7KD and GST-MLK7KD/LZ” value is reported as “inhibited”.
